In data set [1] the test system is COLO205 cell line (Colon cancer). As to the kind of experiment: Cell viability assay (CellTiter-Glo), COLO205. The following applies: Homo sapiens, COLO 205; COLO205, 72 hours; read-out: IC50 Cell-based assay (COLO205). Here is the method:
(§1) The CellTiter-Glo® assay was purchased from Promega. All the reagents and plates for cell culture were purchased Invitrogen Life Technology and Nunc, respectively.
(§2) To investigate whether a compound is able to inhibit the activity of MEK in cells, a mechanism-based assay using COLO205 cell line (Colon cancer) and M14 cell line (Melanoma) were developed. COLO205 cells and M14 cells were cultured in a tissue culture flask to 80% confluence in RPMI1640 plus 10% fetal bovine serum. Cells were collected and plated onto 96 well culture plates at 2×10^2 cells/well. Plates were incubated overnight at 37° C. in a 5% CO2 incubator to allow cells to adhere. Various concentrations of MEK inhibitors were added to the plates and incubated at 37° C. for 72 hours. After 72 hours, 20 μl of CellTiter-Glo® reagent was added to each well. Mix by orbital shaking for 2 min, then incubates at room temperature for 15 min. Cell lysate were transferred into a 96 well white plate (Thermo). Plates were read out by EnVision Multilabel Plate Reader. The data were analyzed using GraphPad Prism5.
(In general: In ATP-based viability assays light output follows the ATP content of the culture.)

A further data set concerns M14 cell line (Melanoma). Put plainly: Cell viability assay (CellTiter-Glo), M14. The settings on record: Homo sapiens; M14, 72 hours; read-out: IC50 Cell-based assay (M14). Here is the method:
as §1, §2

In the next data set the target is Mek1 (Homo sapiens (Human), UniProt Q02750). Put plainly: Mek1 kinase assay (LANCE). It is filed as biochemical. The following applies: Mek1 0.5 nM, 50 μM ATP, 90 min at 23° C.; read-out: IC50 Enzymatic assay. The text has this:
The LANCE Ultra assay kit was purchased from PerkinElmer. The ULight™-MBP peptide, Europium labeled Antibody and LANCE Detection buffer were purchased from PerkinElmer. The APT and dimethylsulfoxide were purchased from Sigma-Aldrich. The 5× Kinase buffer were purchased from Invitrogen.
A Mek1 kinase assay (LANCE, PerkinElmer) was developed for supporting compound profiling and lead optimization. […] Then the phosphorylated Erk1 was able to phosphorylate ULight™-MBP peptide (PerkinElmer). The phosphorylated peptide was detected by Europium-anti-phospho-MBP (PerkinElmer). […] After quenching the reaction with […], 2 nM Europium-anti-phospho-MBP was added to the reaction mixture and incubated for 60 min, followed by a detection using EnVision Multilabel Plate Reader (PerkinElmer). The IC50 values were derived through a curve fitting using GraphPad Prism5.
In general terms: Time-resolved FRET reads energy transfer from a long-lived donor to a nearby acceptor.

Data set [2] is described as follows: Example 3 toxicity study by oral administration for 8 days. The following applies: for Body weight: escalating 5-320 mg/kg over 8 days. It is filed as in vivo, Sprague-Dawley rats. Here is the method:
To evaluate the potential toxicity, test article, Example 3, was administered orally for 8 days to Sprague-Dawley rats.
Male and female Sprague-Dawley rats, 6 weeks of age at onset of the study, were assigned to 2 experimental groups as follow: (1) 2 male rats treated 5, 5, 10, 20, 40, 80, 160, 320 mg/kg each day with doses escalating for 8 days (2) 2 female rats treated 5, 5, 10, 20, 40, 80, 160, 320 mg/kg each day with doses escalating for 8 days. Each article was in vehicle (Captisol).
Body weight was measured on a daily basis to determine toxicity. All groups were sacrificed at 9th day.

Sequence of Mek1 (Q02750 whole entry, species assumed): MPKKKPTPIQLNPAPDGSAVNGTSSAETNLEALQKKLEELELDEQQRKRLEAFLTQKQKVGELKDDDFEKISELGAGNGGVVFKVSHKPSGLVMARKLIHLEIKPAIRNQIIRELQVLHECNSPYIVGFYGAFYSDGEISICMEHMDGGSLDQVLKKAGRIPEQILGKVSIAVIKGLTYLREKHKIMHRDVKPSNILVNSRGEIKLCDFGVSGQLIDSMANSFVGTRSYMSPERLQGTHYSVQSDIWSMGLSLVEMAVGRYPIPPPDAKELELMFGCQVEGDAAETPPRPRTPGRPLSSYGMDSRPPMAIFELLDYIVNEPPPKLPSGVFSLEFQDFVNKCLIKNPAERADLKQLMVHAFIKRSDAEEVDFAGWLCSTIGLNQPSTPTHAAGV

For the compound `Cn1c(Nc2ccc(I)cc2F)c(C(N)=O)c2c(c1=O)CCC2` [Example 4, 3-(2-fluoro-4-iodophenylamino)-2-methyl-1-oxo-2,5,6,7-tetrahydro-1H-cyclopenta[c]pyridine-4-carboxamide], the IC50 (usually the concentration at which inhibition is half-maximal) in data set [1] was less than 50 nM; with M14 cell line (Melanoma) it was less than 500 nM; at Mek1, less than 5000 nM.
For the compound `Cn1c(Nc2ccc(I)cc2F)c(-c2nnc(N)o2)c2c(c1=O)CCC2` [Example 9, 4-(5-amino-1,3,4-oxadiazol-2-yl)-3-(2-fluoro-4-iodophenylamino)-2-methyl-2,5,6,7-tetrahydro-1H-cyclopenta[c]pyridin-1-one], the IC50 is less than 50 nM in data set [1], less than 1000 nM in the data set with M14 cell line (Melanoma) and less than 5000 nM at Mek1.
For `Cn1c(Nc2ccc(I)cc2F)c(C(=O)NOCCO)c2ncccc2c1=O` [Example 1, 7-(2-fluoro-4-iodophenylamino)-N-(2-hydroxyethoxy)-6-methyl-5-oxo-5,6-dihydro-1,6-naphthyridine-8-carboxamide] the same measures were less than 500 nM, less than 500 nM and less than 1000 nM.
Regarding `Cn1c(Nc2ccc(I)cc2F)c(C(=O)NOCCO)c2c(c1=O)CCC2` [Example 3, 3-(2-fluoro-4-iodophenylamino)-N-(2-hydroxyethoxy)-2-methyl-1-oxo-2,5,6,7-tetrahydro-1H-cyclopenta[c]pyridine-4-carboxamide], the IC50 in data set [1] was less than 5 nM; in the data set with M14 cell line (Melanoma), less than 10 nM; on Mek1 it was less than 500 nM. The Body weight entry was “decreased after 6 days” in data set [2] (female rats); “decreased at day 6 and day 8” in data set [2] (male rats). In addition, the Mortality result in data set [2] (male and female rats, escalating 5, 5, 10, 20, 40, 80, 160, 320 mg/kg over 8 days) is recorded as “No mortality was observed”.
With `C[C@H](O)CONC(=O)c1c2c(c(=O)n(C)c1Nc1ccc(I)cc1F)CCC2` [Example 5, (S)-3-(2-fluoro-4-iodophenylamino)-N-(2-hydroxypropoxy)-2-methyl-1-oxo-2,5,6,7-tetrahydro-1H-cyclopenta[c]pyridine-4-carboxamide], the results for the IC50 (in data set [1]; in the data set with M14 cell line (Melanoma); on Mek1) were less than 5 nM, less than 50 nM and less than 500 nM, respectively.
In the case of `Cn1c(Nc2ccc(I)cc2F)c(C(=O)NOCCO)c2c(c1=O)CC(C)(C)C2` [Example 10, 3-(2-fluoro-4-iodophenylamino)-N-(2-hydroxyethoxy)-2,6,6-trimethyl-1-oxo-2,5,6,7-tetrahydro-1H-cyclopenta[c]pyridine-4-carboxamide], the IC50 in data set [1] was less than 50 nM; in the data set with M14 cell line (Melanoma), less than 100 nM.
In the case of `Cn1c(Nc2ccc(I)cc2F)c(C(=O)NOCC(C)(C)O)c2c(c1=O)CCC2` [Example 7, 3-(2-fluoro-4-iodophenylamino)-N-(2-hydroxy-2-methylpropoxy)-2-methyl-1-oxo-2,5,6,7-tetrahydro-1H-cyclopenta[c]pyridine-4-carboxamide], the figures for the IC50 (in data set [1]; in the data set with M14 cell line (Melanoma); at Mek1) were less than 5 nM, less than 500 nM and less than 5000 nM, respectively.
Turning to `Cn1c(Nc2ccc(I)cc2Cl)c(C(=O)NOCCO)c2c(c1=O)CCC2` [Example 11, 3-(2-chloro-4-iodophenylamino)-N-(2-hydroxyethoxy)-2-methyl-1-oxo-2,5,6,7-tetra hydro-1H-cyclopenta[c]pyridine-4-carboxamide], the IC50 was less than 5 nM in data set [1], less than 50 nM with M14 cell line (Melanoma) and less than 500 nM on Mek1.
Turning to `Cn1c(Nc2ccc(I)cc2F)c(-c2nnc(N)o2)c2ncccc2c1=O` [Example 2, 8-(5-amino-1,3,4-oxadiazol-2-yl)-7-(2-fluoro-4-iodophenylamino)-6-methyl-1,6-naphthyridin-5(6H)-one], the IC50 was less than 50000 nM in data set [1], less than 50000 nM in the data set with M14 cell line (Melanoma) and less than 10000 nM on Mek1.
As for `Cn1c(Nc2ccc(I)cc2F)c(C(=O)NOCC(O)CO)c2c(c1=O)CCC2` (centres unmarked) [Example 8, N-(2,3-dihydroxypropoxy)-3-(2-fluoro-4-iodophenylamino)-2-methyl-1-oxo-2,5,6,7-tetrahydro-1H-cyclopenta[c]pyridine-4-carboxamide], the IC50 was less than 5 nM in data set [1], less than 50 nM in the data set on M14 cell line (Melanoma) and less than 500 nM on Mek1.
For `C[C@@H](O)CONC(=O)c1c2c(c(=O)n(C)c1Nc1ccc(I)cc1F)CCC2` [Example 6, (R)-3-(2-fluoro-4-iodophenylamino)-N-(2-hydroxypropoxy)-2-methyl-1-oxo-2,5,6,7-tetrahydro-1H-cyclopenta[c]pyridine-4-carboxamide] the same measures were less than 10 nM, less than 100 nM and less than 1000 nM.

The record behind these values is US9617261B2, “Substituted pyridinone compounds as MEK inhibitors” (The Asan Foundation, priority 2013, dated 2017).
